From patent US12384776B2, “Compounds and uses thereof” (Foghorn Therapeutics Inc., priority 2019, dated 2025)

Each compound was assayed against Nanoluciferase-BRD9 fusion protein (3×FLAG-NLuc-BRD9) in SYO-1 cells (Homo sapiens (Human), UniProt Q9H8M2) (assay: SYO1 BRD9 NanoLuc degradation assay). Details: SYO-1 cells expressing 3×FLAG-NLuc-BRD9, 6 hours incubation, top dose 1 μM.
Assay type: cell-based
Outline: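 Stable SYO-1 line expressing 3×FLAG-NLuc-BRD9, treated with 10-point 3-fold dilutions (top 1 μM final) for 6 hours. Nanoluciferase luminescence read with Nano-Glo reagent. % inhibition relative to DMSO (high control) and 1 μM reference BRD9 degrader (low control).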

Sequence of Nanoluciferase-BRD9 fusion protein (3×FLAG-NLuc-BRD9) in SYO-1 cells (Q9H8M2 whole entry, the tested form may be a part): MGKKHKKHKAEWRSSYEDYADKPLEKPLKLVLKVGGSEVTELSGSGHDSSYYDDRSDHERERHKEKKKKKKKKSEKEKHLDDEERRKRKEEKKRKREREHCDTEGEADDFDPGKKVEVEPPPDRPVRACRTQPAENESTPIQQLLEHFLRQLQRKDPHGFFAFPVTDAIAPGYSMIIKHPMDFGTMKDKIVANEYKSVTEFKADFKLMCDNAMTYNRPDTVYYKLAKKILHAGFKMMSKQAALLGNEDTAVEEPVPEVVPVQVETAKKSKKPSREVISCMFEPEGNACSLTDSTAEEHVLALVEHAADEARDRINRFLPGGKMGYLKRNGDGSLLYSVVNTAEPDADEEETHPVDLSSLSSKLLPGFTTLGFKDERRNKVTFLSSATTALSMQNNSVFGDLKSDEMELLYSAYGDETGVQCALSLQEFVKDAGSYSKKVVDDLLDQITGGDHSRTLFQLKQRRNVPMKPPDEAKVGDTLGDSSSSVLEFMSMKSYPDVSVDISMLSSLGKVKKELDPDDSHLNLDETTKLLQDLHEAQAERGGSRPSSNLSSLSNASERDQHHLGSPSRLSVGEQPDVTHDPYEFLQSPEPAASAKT

Row | SMILES | IC50 [nM]
1 | COc1cc(-c2cn(C)c(=O)c3c2CCN(C(=O)NC2CC4(CCN(CCOc5ccc6c(c5)C(=O)N(C5CCC(=O)NC5=O)C6=O)CC4)C2)C3)cc(OC)c1CN(C)C (centres unmarked) [Compound D224] | < 10
2 | CNC(=O)N1CCc2c(-c3cc(OC)c(CN4CCC5(CC4)CN(CCCN4CCN(c6ccc7c(c6)C(=O)N(C6CCC(=O)NC6=O)C7=O)CC4)CCO5)c(OC)c3)cn(C)c(=O)c2C1 (centres unmarked) [Compound D140] | < 10
3 | CNC(=O)N1CCc2c(-c3cc(OC)c(CN4CCN(c5ccn6c(=O)n(C7CCC(=O)NC7=O)nc6c5)CC4)c(OC)c3)cn(C)c(=O)c2C1 (centres unmarked) [Compound D61] | 100 to 1000
4 | CNC(=O)N1CCc2c(-c3cc(OC)c(CN4CCN(CCC5CCN(c6ccc7c(c6)C(=O)N(C6CCC(=O)NC6=O)C7=O)CC5)CC45COC5)c(OC)c3)cn(C)c(=O)c2C1 (centres unmarked) [Compound D98] | < 10
5 | CNC(=O)N1CCc2c(-c3cc(OC)c(CN4CCN(CCN5CCC(c6ccc7c(c6)CN(C6CCC(=O)NC6=O)C7=O)CC5)CC4)c(OC)c3)cn(C)c(=O)c2C1 (centres unmarked) [Compound D72] | < 10
6 | CNC(=O)N1CCc2c(-c3cc(OC)c(CN4CC5(CC(N6CCN(c7ccc8c(c7)C(=O)N(C7CCC(=O)NC7=O)C8=O)CC6)C5)C4)c(OC)c3)cn(C)c(=O)c2C1 (centres unmarked) [Compound D146] | < 10
7 | CNC(=O)N1CCc2c(-c3cc(OC)c(CN4CCC(CCN5CCC(c6ccc7c(c6)CN(C6CCC(=O)NC6=O)C7=O)CC5)CC4)c(OC)c3)cn(C)c(=O)c2C1 (centres unmarked) [Compound D68] | < 10
8 | COc1cc(-c2cn(C)c(=O)c3c2CCCC3)cc(OC)c1CN1CC(CN2CCC3(CC2)CN(c2ccc4c(c2)C(=O)N(C2CCC(=O)NC2=O)C4)C3)C1 (centres unmarked) [Compound D301] | < 10
9 | COc1cc(-c2cn(C)c(=O)c3c2CCN(C(=O)NC2CC4CN(CCOc5ccc6c(c5)C(=O)N(C5CCC(=O)NC5=O)C6=O)CC4C2)C3)cc(OC)c1CN(C)C (centres unmarked) [Compound D273] | 100 to 1000
10 | CNC(=O)N1CCc2c(-c3cc(OC)c(CN4CCC5(CC4)CCN(C(C)(C)C#Cc4ccc6c(c4)C(=O)N(C4CCC(=O)NC4=O)C6=O)C5)c(OC)c3)cn(C)c(=O)c2C1 (centres unmarked) [Compound D137] | 10 to 100
11 | COc1cc(-c2cn(C)c(=O)c3c2CCN(C(=O)NCC2CC4(CCN(CCCOc5ccc6c(c5)C(=O)N(C5CCC(=O)NC5=O)C6=O)CC4)CO2)C3)cc(OC)c1CN(C)C (centres unmarked) [Compound D233] | 100 to 1000
12 | CNC(=O)N1CCc2c(-c3cc(OC)c(CN4CCN(CCC5CCN(c6ccc7c(c6)C(=O)N(C6CCC(=O)NC6=O)C7=O)CC5)C(C)C4)c(OC)c3)cn(C)c(=O)c2C1 (centres unmarked) [Compound D100] | < 10
13 | CNC(=O)N1CCc2c(-c3cc(OC)c(CN4CCC(CCN5CC6CC5CN6c5ccc6c(c5)C(=O)N(C5CCC(=O)NC5=O)C6=O)CC4)c(OC)c3)cn(C)c(=O)c2C1 (centres unmarked) [Compound D172] | < 10
14 | COc1cc(-c2cn(C)c(=O)c3c2CCN(C(=O)NCC2CC4(C2)CN(CCCOc2ccc5c(c2)C(=O)N(C2CCC(=O)NC2=O)C5=O)C4)C3)cc(OC)c1CN(C)C (centres unmarked) [Compound D194] | 100 to 1000
15 | CNC(=O)N1CCc2c(-c3cc(OC)c(CN4CC(S(=O)(=O)NCCN5CCN(c6ccc7c(c6)C(=O)N(C6CCC(=O)NC6=O)C7=O)CC5)C4)c(OC)c3)cn(C)c(=O)c2C1 (centres unmarked) [Compound D287] | 100 to 1000
16 | CNC(=O)N1CCc2c(-c3cc(OC)c(CNc4ccc5c(c4)C(=O)N(C4CCC(=O)NC4=O)C5=O)c(OC)c3)cn(C)c(=O)c2C1 (centres unmarked) [Compound D111] | 10 to 100
17 | CNC(=O)N1CCc2c(-c3cc(OC)c(CN4CCC(CCCN5Cc6cc7c(cc6C5)C(=O)N(C5CCC(=O)NC5=O)C7=O)CC4)c(OC)c3)cn(C)c(=O)c2C1 (centres unmarked) [Compound D178] | < 10
18 | CNC(=O)N1CCc2c(-c3cc(OC)c(CN4CCC(N5CCN(c6ccc7c(c6)C(=O)N(C6CCC(=O)NC6=O)C7=O)CC5)CC4)c(OC)c3)cn(C)c(=O)c2C1 (centres unmarked) [Compound D201] | < 10
19 | CNC(=O)N1CCc2c(-c3cc(OC)c(CN4CCC(CCN5CCN(c6ccc7c(c6)C6(CC6)N(C6CCC(=O)NC6=O)C7=O)CC5)CC4)c(OC)c3)cn(C)c(=O)c2C1 (centres unmarked) [Compound D54] | ≥ 1000

Row | SMILES | IC50 [nM]
20 | CNC(=O)N1CCc2c(-c3cc(OC)c(CN(C)C45CC(C(=O)NCCCCCOc6ccc7c(c6)C(=O)N(C6CCC(=O)NC6=O)C7=O)(C4)C5)c(OC)c3)cn(C)c(=O)c2C1 (centres unmarked) [Compound D276] | 10 to 100
21 | CNC(=O)N1CCc2c(-c3cc(OC)c(CN4CC(N5CCN(c6ccc7c(c6)C(=O)N(C6CCC(=O)NC6=O)C7=O)CC5)C4)c(OC)c3)cn(C)c(=O)c2C1 (centres unmarked) [Compound D132] | < 10
22 | COc1cc(-c2cn(C)c(=O)c3c2CCN(C(=O)NC2CC4(CCN(CCOc5ccc6c(c5)C(=O)N(C5CCC(=O)NC5=O)C6=O)C4)C2)C3)cc(OC)c1CN(C)C (centres unmarked) [Compound D228] | 10 to 100
23 | CNC(=O)N1CCc2c(-c3cc(OC)c(CN4CCN(C5CCN(c6ccc7c(c6)C(=O)N(C6CCC(=O)NC6=O)C7=O)CC5)CC4)c(OC)c3)cn(C)c(=O)c2C1 (centres unmarked) [Compound D170] | < 10
24 | COc1cc(-c2cn(C)c(=O)c3c2CN(C(=O)N(C)C)CC3)cc(OC)c1CN(C)CCOCCN1CCN(c2ccc3c(c2)C(=O)N(C2CCC(=O)NC2=O)C3=O)CC1 (centres unmarked) [Compound D298] | ≥ 1000
25 | CNC(=O)N1CCc2c(-c3cc(OC)c(CN4CCC(CCN5CCN(c6ccc7c(c6OC)CN(C6CCC(=O)NC6=O)C7=O)CC5)CC4)c(OC)c3)cn(C)c(=O)c2C1 (centres unmarked) [Compound D49] | < 10
26 | CNC(=O)N1CCc2c(-c3cc(OC)c(CN4CCC(CN5CCC6(CC5)CC(Oc5ccc7c(c5)C(=O)N(C5CCC(=O)NC5=O)C7=O)C6)CC4)c(OC)c3)cn(C)c(=O)c2C1 (centres unmarked) [Compound D253] | < 10
27 | CNC(=O)N1CCc2c(-c3cc(OC)c(CN4C[C@@H](C)N(CCC5CCN(c6ccc7c(c6)C(=O)N(C6CCC(=O)NC6=O)C7=O)CC5)[C@@H](C)C4)c(OC)c3)cn(C)c(=O)c2C1 (some centres unmarked) [Compound D42] | < 10
28 | COc1cc(-c2cn(C)c(=O)c3c2CCN(C(=O)NCCCN2CCC4(CC2)CCN(c2ccc5c(c2)C(=O)N(C2CCC(=O)NC2=O)C5=O)C4)C3)cc(OC)c1CN(C)C (centres unmarked) [Compound D236] | 10 to 100
29 | COc1cc(-c2cn(C)c(=O)c3c2CCN(C(=O)NCC2CC4(CCN(CCOc5ccc6c(c5)C(=O)N(C5CCC(=O)NC5=O)C6=O)CC4)CO2)C3)cc(OC)c1CN(C)C (centres unmarked) [Compound D259] | 10 to 100
30 | CNC(=O)N1CCc2c(-c3cc(OC)c(CN4CCC(CCN5CCN(c6cc(F)c7c(c6)C(=O)N(C6CCC(=O)NC6=O)C7=O)CC5)CC4)c(OC)c3)cn(C)c(=O)c2C1 (centres unmarked) [Compound D86] | < 10
31 | COc1cc(-c2cn(C)c(=O)c3c2CCN(C(=O)NCCCN2CCC(N4CCN(c5ccc6c(c5)C(=O)N(C5CCC(=O)NC5=O)C6=O)CC4)C2)C3)cc(OC)c1CN(C)C (centres unmarked) [Compound D227] | < 10
32 | COc1cc(-c2cn(C)c(=O)c3c2CCN(C(=O)NCCCN2CCC(OC4CCN(c5ccc6c(c5)C(=O)N(C5CCC(=O)NC5=O)C6=O)CC4)CC2)C3)cc(OC)c1CN(C)C (centres unmarked) [Compound D223] | 10 to 100
33 | COc1cc(-c2cn(C)c(=O)c3c2CCN(C(=O)NCCCCCOc2cccc4c2C(=O)N(C2CCC(=O)NC2=O)C4=O)C3)cc(OC)c1CN1CCC1 (centres unmarked) [Compound D90] | 10 to 100
34 | CNC(=O)N1CCc2c(-c3cc(OC)c(CN4CCC5(CC4)CN(CCCCOc4ccc6c(c4)C(=O)N(C4CCC(=O)NC4=O)C6=O)CCO5)c(OC)c3)cn(C)c(=O)c2C1 (centres unmarked) [Compound D222] | < 10
35 | COc1cc(-c2cn(C)c(=O)c3c2CCN(C(=O)NCCCN2CC4(CCN4c4ccc5c(c4)C(=O)N(C4CCC(=O)NC4=O)C5=O)C2)C3)cc(OC)c1CN(C)C (centres unmarked) [Compound D241] | 100 to 1000
36 | CNC(=O)N1CCc2c(-c3cc(OC)c(CNC4CC5(C4)CN(c4ccc6c(c4)C(=O)N(C4CCC(=O)NC4=O)C6=O)C5)c(OC)c3)cn(C)c(=O)c2C1 (centres unmarked) [Compound D158] | < 10
37 | COc1cc(-c2cn(C)c(=O)c3c2CCN(C(=O)NC2CC4CC2CN4CCOc2ccc4c(c2)C(=O)N(C2CCC(=O)NC2=O)C4=O)C3)cc(OC)c1CN(C)C (centres unmarked) [Compound D274] | 100 to 1000

Same assay, conditions: SYO-1 cells, 6 hours, Table 6C

Row | SMILES | IC50 [nM]
38 | COc1cc(-c2cn(C)c(=O)c3c2CCC3)cc(OC)c1CN1CC(Oc2ccc3c(c2)C(=O)N(C2CCC(=O)NC2=O)C3=O)C1 (centres unmarked) [Compound D362] | < 10
39 | COc1cc(-c2cn(C)c(=O)c3c2COC3)cc(OC)c1CN1CCC(CN2CCC3(CC2)CN(c2ccc4c(c2)C(=O)N(C2CCC(=O)NC2=O)C4)C3)CC1 (centres unmarked) [Compound D372] | < 10
40 | COc1cc(-c2cn(C)c(=O)c3c2CCC3)cc(OC)c1CN1CC(C#Cc2ccc3c(c2)CN(C2CCC(=O)NC2=O)C3=O)C1 (centres unmarked) [Compound D369] | < 10
41 | COc1cc(-c2cn(C)c(=O)c3c2CCN(C(=O)NCC(F)F)C3)cc(OC)c1CN1CCN(CCC2CCN(c3ccc4c(c3)CN(C3CCC(=O)NC3=O)C4=O)CC2)CC1(C)C (centres unmarked) [Compound D320] | < 10
42 | COc1cc(-c2cn(C)c(=O)c3c2CCCN3)cc(OC)c1CN1CCC2(CC1)CN(c1ccc3c(c1)CN(C1CCC(=O)NC1=O)C3=O)C2 (centres unmarked) [Compound D360] | < 10
43 | COc1cc(-c2cn(C)c(=O)c3c2CCC3)cc(OC)c1CN1CCC(C#Cc2ccc3c(c2)C(=O)N(C2CCC(=O)NC2=O)C3)CC1 (centres unmarked) [Compound D371] | < 10
44 | COc1cc(-c2cn(C)c(=O)c3c2CCN(C(=O)NCC(F)F)C3)cc(OC)c1CN(C)c1ccc2c(c1)C(=O)N(C1CCC(=O)NC1=O)C2 (centres unmarked) [Compound D307] | < 10
45 | [2H]C([2H])([2H])n1cc(-c2cc(OC)c(CN3CCN(CCC4CCN(c5ccc6c(c5)C(=O)N(C5CCC(=O)NC5=O)C6)CC4)CC3)c(OC)c2)c2c(c1=O)CN(C(=O)NCC(F)F)CC2 (centres unmarked) [Compound D316] | ≥ 1000
46 | [2H]C([2H])([2H])n1cc(-c2cc(OC)c(CN3[C@H](C)CN(CCC4CCN(c5ccc6c(c5)C(=O)N(C5CCC(=O)NC5=O)C6)CC4)C[C@H]3C)c(OC)c2)c2c(c1=O)CN(C(=O)NC)CC2 (some centres unmarked) [Compound D319] | < 10
47 | CNC(=O)N1CCc2c(-c3cc(OC)c(CN4CCC5(CN(c6ccc7c(c6)C(=O)N(C6CCC(=O)NC6=O)C7)C5)C(F)(F)C4)c(OC)c3)cn(C)c(=O)c2C1 (centres unmarked) [Compound D306] | < 10
